The subject of series [1] is HepG-2 liver cancer cell line. The experiment in a line: MTT antiproliferative assay, HepG-2. Conditions: for IC50: Homo sapiens, HepG2, read-out: IC50 against HepG-2; for SI (selectivity index), HepG-2: relative to normal WI-38 cells.
Series [2] concerns HCT-116 colorectal cancer cell line. The experiment in a line: MTT antiproliferative assay, HCT-116. As to conditions: for IC50: Homo sapiens, HCT-116, read-out: IC50 against HCT-116; for SI (selectivity index), HCT-116: relative to normal WI-38 cells.
The subject of series [3] is human lung fibroblasts (WI-38) normal cells. The experiment in a line: MTT cytotoxicity assay, normal WI-38 cells. In kind it is cell-based. Conditions: WI-38, read-out: IC50 against WI-38.
The test system of series [4] is MCF-7 breast cancer cell line. The experiment in a line: MTT antiproliferative assay, MCF-7. Conditions: for IC50: Homo sapiens, MCF7, read-out: IC50 against MCF-7; for SI (selectivity index), MCF-7: relative to normal WI-38 cells.
Another series relates to Bcl-2. Kind of series: Bcl-2 level, ELISA in HepG-2. It counts as cell-based, human. As to conditions: for Bcl-2: HepG-2, 24 h, 5a at 3.42 μM.
Series [5] deals with HepG-2 cells. Kind of series: Cell cycle analysis. As to conditions: 24 h. In kind it is cell-based, human.
In the next series the test system is Bax. Kind of series: Bax level, ELISA in HepG-2. In kind it is cell-based, human. As to conditions: for Bax: HepG-2, 24 h, 5a at 3.42 μM; for Bax/Bcl-2: ratio of the two levels, HepG-2.
Another series has as its system p53. Kind of series: p53 level, ELISA in HepG-2. In kind it is cell-based, human.
The target in the next series is c-Met kinase (Homo sapiens, UniProt P08581). Kind of series: c-Met kinase inhibitory assay.
Chain of c-Met kinase (P08581 25-1390): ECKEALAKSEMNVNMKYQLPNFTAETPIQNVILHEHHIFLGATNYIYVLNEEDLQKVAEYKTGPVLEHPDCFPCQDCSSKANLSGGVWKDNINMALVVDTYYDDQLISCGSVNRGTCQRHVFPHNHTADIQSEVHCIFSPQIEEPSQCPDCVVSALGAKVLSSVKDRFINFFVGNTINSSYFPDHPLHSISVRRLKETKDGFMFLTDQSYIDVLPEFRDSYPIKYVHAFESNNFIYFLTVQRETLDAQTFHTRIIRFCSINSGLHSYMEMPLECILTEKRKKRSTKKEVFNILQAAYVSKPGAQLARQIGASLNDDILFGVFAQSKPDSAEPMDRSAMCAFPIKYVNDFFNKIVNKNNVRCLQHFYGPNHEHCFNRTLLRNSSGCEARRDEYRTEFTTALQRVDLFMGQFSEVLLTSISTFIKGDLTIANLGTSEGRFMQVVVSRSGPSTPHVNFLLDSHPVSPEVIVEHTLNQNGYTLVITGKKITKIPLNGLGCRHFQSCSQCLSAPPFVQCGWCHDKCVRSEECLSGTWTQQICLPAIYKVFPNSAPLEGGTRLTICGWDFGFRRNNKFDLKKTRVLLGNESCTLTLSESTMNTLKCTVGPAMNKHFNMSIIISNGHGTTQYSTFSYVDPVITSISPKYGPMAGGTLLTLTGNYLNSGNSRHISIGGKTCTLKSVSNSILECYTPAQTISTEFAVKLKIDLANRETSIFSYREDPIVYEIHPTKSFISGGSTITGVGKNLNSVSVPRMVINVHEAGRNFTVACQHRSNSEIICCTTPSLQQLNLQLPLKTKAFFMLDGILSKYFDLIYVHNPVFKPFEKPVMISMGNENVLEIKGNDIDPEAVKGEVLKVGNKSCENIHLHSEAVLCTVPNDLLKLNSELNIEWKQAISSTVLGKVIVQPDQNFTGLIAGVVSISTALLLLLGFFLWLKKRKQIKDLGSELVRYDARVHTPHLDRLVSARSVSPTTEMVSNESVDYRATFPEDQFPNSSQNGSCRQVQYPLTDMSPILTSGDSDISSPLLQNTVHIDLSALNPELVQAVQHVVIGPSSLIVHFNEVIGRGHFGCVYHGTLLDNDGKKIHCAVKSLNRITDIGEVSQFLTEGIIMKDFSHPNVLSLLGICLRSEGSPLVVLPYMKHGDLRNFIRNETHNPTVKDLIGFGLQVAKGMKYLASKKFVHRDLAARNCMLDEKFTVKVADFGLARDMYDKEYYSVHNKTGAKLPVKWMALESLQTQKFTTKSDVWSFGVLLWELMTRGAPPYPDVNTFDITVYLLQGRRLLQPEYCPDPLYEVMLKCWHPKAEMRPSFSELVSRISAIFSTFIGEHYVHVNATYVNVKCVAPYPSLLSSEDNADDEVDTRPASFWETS
Another series has as its system caspase-3. The experiment in a line: Caspase-3 level, ELISA in HepG-2. It counts as cell-based, human. As to conditions: for Casp-3: HepG-2, 24 h, 5a at 3.42 μM.
The subject of series [6] is HepG-2 cells. The experiment in a line: Annexin V-FITC/PI apoptosis assay. In kind it is cell-based, human.
Setting [7] is: HepG-2, IC50 concentration (3.42 μM).
Where [8] appears, read: with respect to untreated HepG-2 cells.

Entries after “also recorded” stand apart in the source; their conditions may differ.

`O=c1[nH]cc(F)c(=O)[nH]1` [5-Fluorouracil, reference compound]: in series [1], the IC50 came to 2.87 ± 0.15 µM and the “SI (selectivity index), HepG-2” value is listed as 27.77. In series [2], the IC50 is 5.26 ± 0.31 µM and the “SI (selectivity index), HCT-116” value is recorded as 15.15. The IC50 in series [3] turned out to be 79.7 ± 0.64 µM. In series [4], the IC50 stood at 3.58 ± 0.45 µM and the “SI (selectivity index), MCF-7” value was found to be 22.26.
`Cc1ccc(S(=O)(=O)n2nc(C)c3c(-c4ccccc4)c(C#N)c(=S)[nH]c32)cc1` [Compound 5a, 3-Methyl-4-phenyl-6-thioxo-1-tosyl-6,7-dihydro-1H-pyrazolo[3,4-b]pyridine-5-carbonitrile] displayed a Bcl-2 in the series on Bcl-2 of 2.09 ± 0.15 ng/mL. For the same molecule, the “fold reduction of Bcl-2 level” value in the series with Bcl-2 (vs untreated HepG-2 cells) is ~3.9 folds. The “cell cycle arrest phase” value with HepG-2 cells [5] (HepG-2, 3.42 μM) was “arrested the cell cycle at the G1/S phase; also recorded: cell cycle arrest at the G1/S phase”. Also, in the series on HepG-2 cells [5] (setting [7]), the “percentage of cells in G0–G1 phase” value amounted to 51.93%, the “percentage of cells in G2/M phase” value worked out at 3.89% and the “percentage of cells in S phase” value was 44.18%. In [1], the IC50 turned out to be 3.42 ± 1.31 µM and the “SI (selectivity index), HepG-2” value turned out to be 23.52. Besides, the “fold more potent than erlotinib against HepG-2” value in series [1] (ratio of IC50 values) is listed as “approximately 2.4 fold”. Also, in series [2], the IC50 was 6.27 ± 1.15 µM and the “SI (selectivity index), HCT-116” value is given as 12.83. In the series on Bax, the Bax is 211.40 ± 0.25 pg/mL and the Bax/Bcl-2 is listed as 101.14. Also, in the series with Bax (vs untreated HepG-2 cells), the “fold increase of Bax level” value is ~5.4 folds and the “fold increase of Bax/Bcl-2 ratio” value is reported as 21 times. The p53 in the series with p53 (HepG-2, 24 h, 5a at 3.42 μM) came out at 825.22 ± 0.40 pg/mL. The “fold upregulation of p53” value in the series on p53 (vs untreated HepG-2 cells) was 6.9 folds. The same molecule registered an IC50 against c-Met kinase of 0.00427 ± 0.00031 µM. Moreover, the IC50 in [3] amounted to 80.46 ± 0.33 µM. The molecule further registered a Casp-3 in the series on caspase-3 of 42.60 ± 0.10 ng/mL. The “fold upregulation of caspase-3” value with caspase-3 (vs untreated HepG-2 cells) was found to be 23.8 folds. In addition, in series [4], the IC50 amounted to 5.25 ± 1.04 µM and the “SI (selectivity index), MCF-7” value amounted to 15.32. Also, in the series with HepG-2 cells [6] (HepG-2, 3.42 μM, 24 h), the “Apoptosis Early” value was determined as 24.63%, the “Apoptosis Late” value stood at 16.28% and the Necrosis is recorded as 6.24%. Also, in the series on HepG-2 cells [6] (setting [8]), the “fold increase of early apoptotic cells” value was “about 63 folds” and the “fold increase of late apoptotic cells” value is reported as ~116 folds.
On to `Cc1ccc(S(=O)(=O)n2nc(C)c3c(-c4ccc(Cl)cc4)c(C#N)c(=S)[nH]c32)cc1` [Compound 5b, 4-(4-Chlorophenyl)-3-methyl-6-thioxo-1-tosyl-6,7-dihydro-1H-pyrazolo[3,4-b]pyridine-5-carbonitrile], for which the IC50 in series [1] was 3.56 ± 1.5 µM; in [2], 9.21 ± 0.02 µM; on c-Met kinase it was 0.00795 ± 0.00017 µM; in [3], 85.1 ± 0.32 µM; in series [4], 6.82 ± 1.1 µM. For the same molecule, the “fold more potent than erlotinib against HepG-2” value in series [1] (ratio of IC50 values) was “approximately 2.4 fold”. In addition, the “SI (selectivity index), HepG-2” value in [1] amounted to 23.90. Besides, the “SI (selectivity index), HCT-116” value in [2] was found to be 9.23. Further, the “SI (selectivity index), MCF-7” value in series [4] came to 12.47.
Consider `Cc1ccc(S(=O)(=O)n2nc(C)c3c(-c4ccccc4)c4c(N)c(C(N)=O)sc4nc32)cc1` [Compound 8a, 5-Amino-3-methyl-4-phenyl-1-tosyl-1H-pyrazolo[3,4-b]thieno[3,2-e]pyridine-6-carboxamide], for which the IC50 worked out at 30.58 ± 0.01 µM in series [1], 47.38 ± 0.11 µM in series [2] and 43.02 ± 0.24 µM in series [4].
The like results for `CC(=O)c1sc2nc3c(c(C)nn3S(=O)(=O)c3ccc(C)cc3)c(-c3ccccc3)c2c1N` [Compound 8b, 1-(5-Amino-3-methyl-4-phenyl-1-tosyl-1H-pyrazolo[3,4-b]thieno[3,2-e]pyridin-6-yl)ethan-1-one] were, in that order, 52.1 ± 0.71 µM, 67.84 ± 0.02 µM and 60.23 ± 0.17 µM.
On the same counts, the results for `Cc1ccc(S(=O)(=O)n2nc(C)c3c(-c4ccc(Cl)cc4)c4c(N)c(C#N)sc4nc32)cc1` [Compound 8c, 5-Amino-4-(4-chlorophenyl)-3-methyl-1-tosyl-1H-pyrazolo[3,4-b]thieno[3,2-e]pyridine-6-carbonitrile] are 25.4 ± 0.5 µM, 41.77 ± 0.4 µM and 36.25 ± 0.13 µM.
Consider `CCOC(=O)c1sc2nc3c(c(C)nn3S(=O)(=O)c3ccc(C)cc3)c(-c3ccc(Cl)cc3)c2c1N` [Compound 8d, Ethyl 5-amino-4-(4-chlorophenyl)-3-methyl-1-tosyl-1H-pyrazolo[3,4-b]thieno[3,2-e]pyridine-6-carboxylate], for which the IC50 in [1] amounted to 23.12 ± 0.08 µM; in series [2] it was 38.11 ± 0.3 µM; in [4], 32.14 ± 0.19 µM.
Take `CC(=O)c1sc2nc3c(c(C)nn3S(=O)(=O)c3ccc(C)cc3)c(-c3ccc(Cl)cc3)c2c1N` [Compound 8e, 1-(5-Amino-4-(4-chlorophenyl)-3-methyl-1-tosyl-1H-pyrazolo[3,4-b]thieno[3,2-e]pyridin-6-yl)ethan-1-one]: the figures for the IC50 in [1], in series [2] and in [4] were 12.31 ± 0.1 µM, 18.2 ± 0.62 µM and 14.2 ± 0.33 µM, respectively.
On the same counts, the results for `Cc1ccc(S(=O)(=O)n2nc(C)c3c(-c4ccc(Cl)cc4)c4c(N)c(C(=O)O)sc4nc32)cc1` [Compound 8f, 5-Amino-4-(4-chlorophenyl)-3-methyl-1-tosyl-1H-pyrazolo[3,4-b]thieno[3,2-e]pyridine-6-carboxylic acid] are 15.4 ± 0.3 µM, 18.86 ± 0.12 µM and 19.3 ± 0.45 µM.
The like results for `Cc1ccc(S(=O)(=O)n2nc(C)c3sc(=S)n(C)c32)cc1` [Compound 10a, 3,6-Dimethyl-1-tosyl-1,6-dihydro-5H-pyrazolo[3,4-d]thiazole-5-thione] were, in that order, 10.2 ± 0.15 µM, 17.2 ± 0.37 µM and 13.7 ± 0.7 µM.
On to `Cc1ccc(S(=O)(=O)n2nc(C)c3sc(=S)n(-c4ccccc4)c32)cc1` [Compound 10b, 3-Methyl-6-phenyl-1-tosyl-1H-pyrazolo[3,4-d]thiazole-5(6H)-thione], for which the IC50 in series [1] was 6.75 ± 0.62 µM; in series [2], 9.36 ± 0.45 µM; in series [3], 85.41 ± 0.51 µM; in [4] it was 8.13 ± 0.4 µM. Also, the “fold less potent than 5-FU against HepG-2” value in [1] (ratio of IC50 values) was 2.3 fold. In [1], the “SI (selectivity index), HepG-2” value was found to be 12.65. In addition, the “SI (selectivity index), HCT-116” value in [2] is recorded as 9.12. The “SI (selectivity index), MCF-7” value in series [4] worked out at 10.50.
In the case of `C#Cc1cccc(Nc2ncnc3cc(OCCOC)c(OCCOC)cc23)c1` [Erlotinib, reference compound], in the series with Bcl-2, the Bcl-2 turned out to be 1.69 ± 0.10 ng/mL. In the series with Bax, the Bax was 200.20 ± 0.25 pg/mL and the Bax/Bcl-2 was 118.84. In addition, in series [3], the IC50 was 70 ± 1.08 µM. For the same molecule, in the series with caspase-3, the Casp-3 amounted to 58.41 ± 0.12 ng/mL.
